# Data taken from patent US4954509A, “Isoquinoline derivatives and their use as analgesics” (Dr. Lo. Zambeletti S.p.A., priority 1988, dated 1990).
# Where a name gives a salt, the structure may show the parent alone. Read-outs that look alike come from different tables or passages of the source.
# Key:
# [1] = biological target: T1, KAPPA opiate receptor (Cavia porcellus, UniProt P41144); assay: opiate receptors binding, KAPPA (3H-Ethyl Ketocyclazocine, guinea pig brain homogenate)
# T1 construct: fresh guinea pig brain homogenate; from tissue; host or cells: guinea pig whole brain without cerebellum, fresh homogenate
# Method: Radio receptor binding to μ and K sites is performed on fresh guinea pig brain homogenate prepared according to Kosterlitz. (1981).
# (§1) Whole brain without cerebellum is homogenized in 50 mM, Tris-buffer (pH 7.4 at 0° C.) and centrifuged at 49,000×g×10 min.
# The pellet is then resuspended in the same buffer, incubated at 37° C. for 45 min. and centrifuged again. 1.9ml of the final homogenate (1:100 in Tris-pH 7.4, 0° C.) is used for the binding assay. Binding to […] sites (Magnan J., 1982) 1 3H [D-Ala2, MePhe4, Gly-o15]Enkephalin (3H-DAGO), an
# is determined in the presence of 10-6M Naloxone. 1 Binding to K sites (Magnan J., 1982)
# The binding to the K-sites is performed using 3H-Ethyl Ketocyclazocine, a non-selective benzomorphan compound which binds to μ, δ and K-sites, in the presence of 100nM of unlabelled DAGO and 100nM of the enkephalin analogue [DAla^2 -DLeu^5 ]Enkephalin (DADLE), to prevent μ and δ binding respectively.
# Final homogenate with solutions of the cold ligand and of the labelled ligand is incubated for 40 min. at 25° C., filtered through Whatman GF/C glass filter discs and washed.
# The radioactivity bound to the filters is counted by liquid scintillation spectrophotometry.
# The non-specific binding is determined in the presence of 500nM of the benzomorphan non-selective compound Mr 2266.
# The equilibrium dissociation constant (KD) and the maximum binding capacity (Bmax) are determined from the analysis of saturation curves, while the inhibition constant (Ki) is determined from the analysis of competition experiments (Hill 1910; Scatchard 1949; Cheng and Prusoff 1973; Gillan et al. 1980).
# [2] = tested on: mice; assay: tail-flick test in mice; assay type: in vivo, mouse (male Charles River, Swiss Strain); settings: subcutaneous, calculated as the free base, 30 min pretreatment; for ED50: Mus musculus, sc, 0.5 h; for MOUSE TAIL-FLICK ED50: 30 min
# Method: (B) Tail-flick test in mice
# The methodology employed is based on that described by D'Amour and Smith, J. Pharmacol. Exp. Ther. 72, 74/1941.
# Male Charles River mice (Swiss Strain), 22-34g body weight were used. Animals were allowed food and water ad libitum and were randomized into groups of 10 prior to experimentation.
# Test compounds were dissolved in either distilled water or distilled water plus 0.1 M AMS and administered by the subcutaneous route in a final volume of 10 ml/Kg. Control animals received 10 ml/kg of the appropriate vehicle alone. Following a pretreatment period of 30 min., the mice were again placed under the heat source and the reaction tine re-determined.
# Percentage quantal protection was determined as the number of mice in which the reaction time was doubled compared to pretreatment values, expressed as a percentage of the total number of mice in the group.
# [3] = biological target: T2, MU opiate receptor (Cavia porcellus, UniProt A0ACM8Q262); assay: opiate receptors binding, MU (3H-DAGO, guinea pig brain homogenate)
# T2 construct: 3H-DAGO displacement
# Method: Radio receptor binding to μ and K sites is performed on fresh guinea pig brain homogenate prepared according to Kosterlitz.
# as §1
# The pellet is then resuspended in the same buffer, incubated at 37° C. for 45 min. and centrifuged again. 1.9ml of the final homogenate (1:100 in Tris-pH 7.4, 0° C.) is used for the binding assay.
# The filters are then dryed, solubilized in Filtercount and the radioactivity monitored. Non specific binding
# is determined in the presence of 10-6M Naloxone.
# [4] = tested on: mice; assay: p-phenylquinone-induced abdominal writhing test in mice; assay type: in vivo, mouse (male Charles River, Swiss Strain); settings: Mus musculus, sc, 20 min; subcutaneous; calculated as the free base; 20 min pretreatment, p-phenylquinone 2 mg/Kg i.p.
# Method: (A) P-phenylquinone-induced abdominal writhing test in mice
# The methodology employed is based on that described by Sigmund et al, Proc. Soc. Exptl. Biol. 95, 729/1957, modified by Milne and Twomey, Agents and Actions, 10, 31/1980.
# Male Charles River mice (Swiss Strain), 25-36g body weight, were used. Animals were allowed food and water ad libitum and were randomized into groups of 10 prior to experimentation. Test compounds were dissolved in either distilled water or distilled water plus 0.1 M AMS, and administered by the subcutaneous route in a final volume of 10 ml/Kg. Control animals received 10 ml/Kg of the appropriate vehicle alone. Following a pretreatment period of 20 min., mice were injected intraperitoneally with p-phenylquinone, 2 mg/Kg at 37° C. in a final volume of […]. […] During this period the number of abdominal writhing responses per animal were recorded where writhing consists of an intermittent contraction of the abdomen associated with hind leg extension.
# The degree of antinociceptive protection afforded by the test compound was determined as the mean number of writhing responses observed in the treated group (T) expressed as a percentage of the mean number of writhing responses in the control group (C) according to the following formula:
# [1-(T/C]×100%=% graded protection
# [5] = read-out: OPIATE RECEPTORS BINDING MU Ki, fresh guinea pig brain homogenate, 25° C., 40 min
# [6] = fresh guinea pig brain homogenate, 25° C., 40 min, read-out: OPIATE RECEPTORS BINDING MU Ki
# T2 sequence (A0ACM8Q262 1-400): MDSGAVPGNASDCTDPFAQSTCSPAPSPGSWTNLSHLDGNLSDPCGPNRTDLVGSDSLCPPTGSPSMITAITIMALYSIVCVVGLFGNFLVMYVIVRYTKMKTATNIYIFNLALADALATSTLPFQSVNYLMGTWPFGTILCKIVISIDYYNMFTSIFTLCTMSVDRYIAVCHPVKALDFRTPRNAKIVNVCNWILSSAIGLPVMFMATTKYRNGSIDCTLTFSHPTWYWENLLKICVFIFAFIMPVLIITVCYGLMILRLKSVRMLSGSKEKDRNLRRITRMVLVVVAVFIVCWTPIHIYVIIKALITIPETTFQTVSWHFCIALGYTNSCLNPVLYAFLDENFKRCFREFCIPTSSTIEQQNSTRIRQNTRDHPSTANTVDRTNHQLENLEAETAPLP
# T1 sequence (P41144 whole entry): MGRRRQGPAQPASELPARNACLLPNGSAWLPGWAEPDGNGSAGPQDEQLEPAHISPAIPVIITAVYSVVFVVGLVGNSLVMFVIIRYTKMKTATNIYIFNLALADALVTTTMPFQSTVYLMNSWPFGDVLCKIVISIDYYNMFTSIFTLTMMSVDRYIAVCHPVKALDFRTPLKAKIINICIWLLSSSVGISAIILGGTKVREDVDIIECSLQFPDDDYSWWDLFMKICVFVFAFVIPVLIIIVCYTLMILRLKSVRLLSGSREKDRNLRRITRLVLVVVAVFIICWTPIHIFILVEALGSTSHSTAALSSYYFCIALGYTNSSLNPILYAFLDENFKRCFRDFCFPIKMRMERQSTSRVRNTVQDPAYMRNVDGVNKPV
structure (smiles),measurement,setting,value
"C[C@H]1Cc2ccccc2[C@H](CN2CCCC2)N1C(=O)Cc1ccc(Cl)c(Cl)c1 (relative stereo) [Example 2, 1-(pyrrolidin-1-yl)methyl-2-(3,4-dichlorophenyl)acetyl-3-methyl-1,2,3,4-tetrahydroisoquinoline hydrochloride hemihydrate acetone. Diastereoisomer TRANS]",Ki,"[1]; fresh guinea pig brain homogenate, 3H-Ethyl Ketocyclazocine with 100nM DAGO and 100nM DADLE, 25° C., 40 min, read-out: OPIATE RECEPTORS BINDING KAPPA Ki",0.001 to 0.05 µM
same,ED50,[2],> 1 mg/kg
"CC1CN(C(=O)Cc2ccc(Cl)c(Cl)c2)C(CN2CCCC2)c2ccccc21 (single isomer, unassigned) [Example 44, (-)-1-(pyrrolidin-1-yl)methyl-2-(3,4-dichlorophenyl)acetyl-4-methyl-1,2,3,4-tetrahydroisoquinoline D(-) tartrate]",Ki,[3]; [5],0.0565 µM
same,ED50,[2],0.025 mg/kg
same,ED50,[4],0.013 mg/kg
"O=C(Cc1ccc(Cl)c(Cl)c1)N1CCc2c(O)cccc2C1CN1CCCC1 (single isomer, unassigned; (-)) [Example 54, (-)-1-(pyrrolidin-1-yl)methyl-2-(3,4-dichlorophenyl)acetyl-5-hydroxy-1,2,3,4-tetrahydroisoquinoline hydrochloride]",ED50,[2],0.006 mg/kg
same,ED50,[4],0.0022 mg/kg
"CC1c2ccccc2C(CN2CCCC2)N(C(=O)Cc2ccc(Cl)c(Cl)c2)C1C (single isomer, unassigned; diastereoisomer b) [Example 46, 1-(pyrrolidin-1-yl)methyl-2-(3,4-dichlorophenyl)acetyl-3,4-dimethyl-1,2,3,4-tetrahydroisoquinoline diastereoisomer B]",MOUSE TAIL-FLICK ED50,[2],0.048 mg/kg
same,ED50,[4],0.011 mg/kg
"CC1c2ccccc2C(CN2CCCCC2)N(C(=O)Cc2ccc(Cl)c(Cl)c2)C1C (single isomer, unassigned; diastereoisomer b) [Example 49, 1-(piperidin-1-yl)methyl-2-(3,4-dichlorophenyl)acetyl-3,4-dimethyl-1,2,3,4-tetrahydroisoquinoline diastereoisomer B.]",ED50,[2],0.077 mg/kg
same,ED50,[4],0.038 mg/kg
"O=C(Cc1ccc(Cl)c(Cl)c1)N1CC(c2ccccc2)c2ccccc2C1CN1CCCC1 (single isomer, unassigned; diastereoisomer b) [Example 50, 1-(pyrrolidin-1-yl)methyl-2-(3,4-dichlorophenyl)acetyl-4-phenyl-1,2,3,4-tetrahydroisoquinoline hydrochloride monohydrate diastereoisomer B]",ED50,[2],20 mg/kg
"CC1c2ccccc2C(CN2CCCC2)N(C(=O)Cc2ccc(Cl)c(Cl)c2)C1C (single isomer, unassigned; diastereoisomer c) [Example 47, 1-(pyrrolidin-1-yl)methyl-2-(3,4-dichlorophenyl)acetyl-3,4-dimethyl-1,2,3,4-tetrahydroisoquinoline hydrochloride diastereoisomer C]",MOUSE TAIL-FLICK ED50,[2],8.9 mg/kg
"O=C(Cc1ccc(Cl)c(Cl)c1)N1CCc2c(Cl)cccc2C1CN1CCCC1 (stereo not shown) [Example 7, 1-(pyrrolidin-1-yl)methyl-2-(3,4-dichlorophenyl)acetyl-5-chloro-1,2,3,4-tetrahydroisoquinoline hydrochloride]",Ki,[3]; [6],1.58 µM
same,Ki,[1],0.0436 µM
same,ED50,[2],0.836 mg/kg
"CSc1cccc2c1CCN(C(=O)Cc1ccc(Cl)c(Cl)c1)C2CN1CCCC1 (stereo not shown) [Example 32, 1-(pyrrolidin-1-yl)methyl-2-(3,4-dichlorophenyl)acetyl-5-methylthio-1,2,3,4-tetrahydroisoquinoline hydrochloride]",Ki,[3]; [6],0.442 µM
same,ED50,[2],0.365 mg/kg
same,ED50,[4],0.202 mg/kg
"COc1cccc2c1CCN(C(=O)Cc1ccc(C(F)(F)F)cc1)C2CN1CCCC1 (stereo not shown) [Example 33, 1-(pyrrolidin-1-yl)methyl-2-(4-trifluoromethylphenyl)acetyl5-methoxy-1,2,3,4-tetrahydroisoquinoline hydrochloride]",Ki,[3]; [6],0.142 µM
same,ED50,[2],0.306 mg/kg
same,ED50,[4],0.06 mg/kg
"O=C(Cc1ccc(C(F)(F)F)cc1)N1CCc2c(O)cccc2C1CN1CCCC1 (stereo not shown) [Example 34, 1-(pyrrolidin-1-yl)methyl-2-(4-trifluoromethylphenyl)acetyl5-hydroxy-1,2,3,4-tetrahydroisoquinoline hydrochloride hemihydrate]",Ki,[3]; [5],0.00059 µM
same,ED50,[2],0.011 mg/kg
same,ED50,[4],0.0023 mg/kg
"COc1cccc2c1CCN(C(=O)Cc1ccc(C(F)(F)F)cc1)C2CN1CCCCC1 (stereo not shown) [Example 35, 1-(piperidin-1-yl)methyl-2-(4-trifluoromethylphenyl)acetyl5-methoxy-1,2,3,4-tetrahydroisoquinoline hydrochloride]",Ki,[3]; [6],~1 µM
same,ED50,[2],0.689 mg/kg
same,ED50,[4],0.204 mg/kg
"COc1cccc2c1CCN(C(=O)Cc1ccc(Cl)c(Cl)c1)C2CN1CCCCC1 (stereo not shown) [Example 36, 1-(piperidin-1-yl)methyl-2-(3,4-dichlorophenyl)acetyl-5-methoxy-1,2,3,4-tetrahydroisoquinoline hydrochloride]",Ki,[3]; [6],~1 µM
same,ED50,[2],0.924 mg/kg
same,ED50,[4],0.163 mg/kg
"O=C(Cc1ccc(C(F)(F)F)cc1)N1CCc2c(O)cccc2C1CN1CCCCC1 (stereo not shown) [Example 37, 1-(piperidin-1-yl)methyl-2-(4-trifluoromethylphenyl)acetyl5-hydroxy-1,2,3,4-tetrahydroisoquinoline hydrochloride]",Ki,[3]; [5],0.00538 µM
same,ED50,[2],0.007 mg/kg
same,ED50,[4],0.0013 mg/kg
"O=C(Cc1ccc(Cl)c(Cl)c1)N1CCc2c(O)cccc2C1CN1CCCCC1 (stereo not shown) [Example 38, 1-(piperidin-1-yl)methyl-2-(3,4-dichlorophenyl)acetyl-5-hydroxy-1,2,3,4-tetrahydroisoquinoline hydrochloride]",Ki,[3]; [5],0.0114 µM
same,ED50,[2],0.01 mg/kg
same,ED50,[4],0.004 mg/kg
"COc1ccc2c(c1OC)CCN(C(=O)Cc1ccc(Cl)c(Cl)c1)C2CN1CCCC1 (stereo not shown) [Example 39, 1-(pyrrolidin-1-yl)methyl-2-(3,4-dichlorophenyl)acetyl-5,6-dimethoxy-1,2,3,4-tetrahydroisoquinoline hydrochloride]",ED50,[2],> 1 mg/kg
"O=C(Cc1ccc(Cl)c(Cl)c1)N1CCc2c(ccc(O)c2O)C1CN1CCCC1 (stereo not shown) [Example 40, 1-(pyrrolidin-1-yl)methyl-2-(3,4-dichlorophenyl)acetyl-5,6-dihydroxy-1,2,3,4-tetrahydroisoquinoline hydrochloride]",Ki,[3]; [5],0.0492 µM
same,ED50,[2],0.461 mg/kg
same,ED50,[4],0.429 mg/kg
"CC(=O)Oc1cccc2c1CCN(C(=O)Cc1ccc(Cl)c(Cl)c1)C2CN1CCCC1 (stereo not shown) [Example 52, 1-(pyrrolidin-1-yl)methyl-2-(3,4-dichlorophenyl)acetyl-5-acetoxy-1,2,3,4-tetrahydroisoquinoline hydrochloride]",ED50,[2],0.024 mg/kg
same,ED50,[4],0.005 mg/kg
